Columns and labels:
[1] = biological target: JAK1 (recombinant purified GST-tagged catalytic domain) (Homo sapiens (Human), UniProt P23458); assay: Jak Biochemical HTRF Assay (JAK1); conditions: [ATP] 31.8 μM
How it was run: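 Under a 120 min room-temperature, ATP-initiated reaction, peptide phosphorylation was detected by Eu-pY20/streptavidin-Dylight 650 HTRF after EDTA stop. IC50 values derive from percent inhibition curves.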

[2] = biological target: JAK2 (recombinant purified GST-tagged catalytic domain) (Homo sapiens (Human), UniProt O60674); assay: Jak Biochemical HTRF Assay (JAK2); conditions: [ATP] 8.5 μM
Sequence of JAK2 (recombinant purified GST-tagged catalytic domain) (O60674 849-1124): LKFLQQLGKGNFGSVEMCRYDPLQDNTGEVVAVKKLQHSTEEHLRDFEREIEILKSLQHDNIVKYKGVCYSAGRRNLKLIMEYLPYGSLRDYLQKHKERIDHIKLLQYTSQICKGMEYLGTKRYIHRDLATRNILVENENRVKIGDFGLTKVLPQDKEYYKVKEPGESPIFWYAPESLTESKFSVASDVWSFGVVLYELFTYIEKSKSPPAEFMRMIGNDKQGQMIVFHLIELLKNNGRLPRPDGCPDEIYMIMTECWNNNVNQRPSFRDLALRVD

Sequence of JAK1 (recombinant purified GST-tagged catalytic domain) (P23458 875-1153): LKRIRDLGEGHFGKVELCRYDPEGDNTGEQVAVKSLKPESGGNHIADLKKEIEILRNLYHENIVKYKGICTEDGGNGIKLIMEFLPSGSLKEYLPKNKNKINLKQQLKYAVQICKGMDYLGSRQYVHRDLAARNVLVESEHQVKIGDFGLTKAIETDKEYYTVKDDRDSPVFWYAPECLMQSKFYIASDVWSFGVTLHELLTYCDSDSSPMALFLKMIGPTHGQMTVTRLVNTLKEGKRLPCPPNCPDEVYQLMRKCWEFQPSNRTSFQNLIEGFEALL

Structure (SMILES)	IC50 [1] [nM]	IC50 [2] [nM]
Cc1cc(Nc2nn(C3(CC#N)CCN(c4ccc(C#N)cn4)CC3)c3cc[nH]c(=O)c23)ccc1C(=O)N1CCSCC1 [Example 15-5, 6-(4-(cyanomethyl)-4-(3-((3-methyl-4-(thiomorpholine-4-carbonyl)phenyl)amino)-4-oxo-4,5-dihydro-1H-pyrazolo[4,3-c]pyridin-1-yl)piperidin-1-yl)nicotinonitrile]	0.15	0.17
CS(=O)(=O)c1ccc(Nc2nn(C3(CC#N)CCN(c4ccc(Br)cn4)CC3)c3cc[nH]c(=O)c23)cc1 [Example 15-8, 2-(1-(5-bromopyridin-2-yl)-4-(3-((4-(methylsulfonyl)phenyl)amino)-4-oxo-4,5-dihydro-1H-pyrazolo[4,3-c]pyridin-1-yl)piperidin-4-yl)acetonitrile]	0.09	0.41
Cc1cc(Nc2nn(C3(CC#N)CCN(c4cc(C(F)(F)F)ccn4)CC3)c3cc[nH]c(=O)c23)ccc1C(=O)N1CCSCC1 [Example 16-1, 2-(4-(3-(3-methyl-4-(thiomorpholine-4-carbonyl)phenylamino)-4-oxo-4,5-dihydropyrazolo[4,3-c]pyridin-1-yl)-1-(4-(trifluoromethyl)pyridin-2-yl)piperidin-4-yl)acetonitrile]	2.77	3.06
Cc1cc(Nc2nn(C3(CC#N)CCN(c4cc(C(F)(F)F)ccn4)CC3)c3cc[nH]c(=O)c23)ccc1C(=O)N1CCC(F)(F)CC1 [Example 16-4, 2-(4-(3-(4-(4,4-difluoropiperidine-1-carbonyl)-3-methylphenylamino)-4-oxo-4,5-dihydropyrazolo[4,3-c]pyridin-1-yl)-1-(4-(trifluoromethyl)pyridin-2-yl)piperidin-4-yl)acetonitrile]	2.01	2.01
CC(F)(F)C(=O)N1CCC(CC#N)(n2nc(Nc3ccc(S(C)(=O)=O)cc3)c3c(=O)[nH]ccc32)CC1 [Example 17, 2-(1-(2,2-difluoropropanoyl)-4-(3-((4-(methylsulfonyl)phenyl)amino)-4-oxo-4,5-dihydro-1H-pyrazolo[4,3-c]pyridin-1-yl)piperidin-4-yl)acetonitrile]	0.1	0.24
N#CC[C@]1(n2nc(Nc3ccc(C(F)(F)F)cc3)c3c(=O)[nH]ccc32)CC[C@@H](Nc2ccccc2)CC1 [Example 18-3, Cis 2-(1-(4-oxo-3-((4-(trifluoromethyl)phenyl)amino)-4,5-dihydro-1H-pyrazolo[4,3-c]pyridin-1-yl)-4-(phenylamino)cyclohexyl)acetonitrile]	41.1	1290
N#CC[C@]1(n2nc(Nc3ccc(C(F)(F)F)cc3)c3c(=O)[nH]ccc32)CC[C@H](Nc2ccccc2)CC1 [Example 18-4, Trans 2-(1-(4-oxo-3-((4-(trifluoromethyl)phenyl)amino)-4,5-dihydro-1H-pyrazolo[4,3-c]pyridin-1-yl)-4-(phenylamino)cyclohexyl)acetonitrile]	6.33	102
N#CCC1(n2nc(Nc3ccc(C(F)(F)F)cc3)c3c(=O)[nH]ccc32)CCC(O)CC1 (stereo not drawn) [Example 18-5, (cis and trans) 2-(4-hydroxy-1-(4-oxo-3-((4-(trifluoromethyl)phenyl)amino)-4,5-dihydro-1H-pyrazolo[4,3-c]pyridin-1-yl)cyclohexyl)acetonitrile]	4.14	84.6
N#CC[C@]1(n2nc(Nc3ccc(Cl)cc3)c3c(=O)[nH]ccc32)CC[C@H](N2CC(F)C2)CC1 [Example 18-6, Trans 2-(1-(3-((4-chlorophenyl)amino)-4-oxo-4,5-dihydro-1H-pyrazolo[4,3-c]pyridin-1-yl)-4-(3-fluoroazetidin-1-yl)cyclohexyl)acetonitrile]	0.09	1.75
N#CC[C@]1(n2nc(Nc3ccc(Cl)cc3)c3c(=O)[nH]ccc32)CC[C@@H](N2CC(F)C2)CC1 [Example 18-7, Cis 2-(1-(3-((4-chlorophenyl)amino)-4-oxo-4,5-dihydro-1H-pyrazolo[4,3-c]pyridin-1-yl)-4-(3-fluoroazetidin-1-yl)cyclohexyl)acetonitrile]	2.98	19.8
COC1CN([C@H]2CC[C@](CC#N)(n3nc(Nc4ccc(Cl)cc4)c4c(=O)[nH]ccc43)CC2)C1 [Example 18-8, Trans 2-(1-(3-((4-chlorophenyl)amino)-4-oxo-4,5-dihydro-1H-pyrazolo[4,3-c]pyridin-1-yl)-4-(3-methoxyazetidin-1-yl)cyclohexyl)acetonitrile]	0.03	2.53
COC1CN([C@H]2CC[C@@](CC#N)(n3nc(Nc4ccc(Cl)cc4)c4c(=O)[nH]ccc43)CC2)C1 [Example 18-9, Cis 2-(1-(3-((4-chlorophenyl)amino)-4-oxo-4,5-dihydro-1H-pyrazolo[4,3-c]pyridin-1-yl)-4-(3-methoxyazetidin-1-yl)cyclohexyl)acetonitrile]	1.14	102
N#CC[C@]1(n2nc(Nc3ccc(Cl)cc3)c3c(=O)[nH]ccc32)CC[C@@H](NCC(F)(F)F)CC1 [Example 18-10, Cis 2-(1-(3-((4-chlorophenyl)amino)-4-oxo-4,5-dihydro-1H-pyrazolo[4,3-c]pyridin-1-yl)-4-((2,2,2-trifluoroethyl)amino)cyclohexyl)acetonitrile]	74	1020
N#CC[C@]1(n2nc(Nc3ccc(Cl)cc3)c3c(=O)[nH]ccc32)CC[C@H](NCC(F)(F)F)CC1 [Example 18-11, Trans 2-(1-(3-((4-chlorophenyl)amino)-4-oxo-4,5-dihydro-1H-pyrazolo[4,3-c]pyridin-1-yl)-4-((2,2,2-trifluoroethyl)amino)cyclohexyl)acetonitrile]	0.22	2.2
N#CCC1(n2nc(Nc3ccc(Cl)cc3)c3c(=O)[nH]ccc32)CCC(O)CC1 (stereo not drawn) [Example 18-12, Cis and trans 2-(1-(3-((4-chlorophenyl)amino)-4-oxo-4,5-dihydro-1H-pyrazolo[4,3-c]pyridin-1-yl)-4-hydroxycyclohexyl)acetonitrile]	5.41	38.5
N#CC[C@]1(n2nc(Nc3ccc(Cl)cc3)c3c(=O)[nH]ccc32)CC[C@@H](Nc2ccccc2)CC1 [Example 18-13, Cis 2-(1-(3-((4-chlorophenyl)amino)-4-oxo-4,5-dihydro-1H-pyrazolo[4,3-c]pyridin-1-yl)-4-(phenylamino)cyclohexyl)acetonitrile]	65	> 1500
N#CC[C@]1(n2nc(Nc3ccc(Cl)cc3)c3c(=O)[nH]ccc32)CC[C@H](Nc2ccccc2)CC1 [Example 18-14, Trans 2-(1-(3-((4-chlorophenyl)amino)-4-oxo-4,5-dihydro-1H-pyrazolo[4,3-c]pyridin-1-yl)-4-(phenylamino)cyclohexyl)acetonitrile]	1.71	32.4
COC1CN([C@H]2CC[C@@](CC#N)(n3nc(Nc4ccc(OC(F)(F)F)cc4)c4c(=O)[nH]ccc43)CC2)C1 [Example 18-15, Cis 2-(4-(3-methoxyazetidin-1-yl)-1-(4-oxo-3-((4-(trifluoromethoxy)phenyl)amino)-4,5-dihydro-1H-pyrazolo[4,3-c]pyridin-1-yl)cyclohexyl)acetonitrile]	151	1140
COC1CN([C@H]2CC[C@](CC#N)(n3nc(Nc4ccc(OC(F)(F)F)cc4)c4c(=O)[nH]ccc43)CC2)C1 [Example 18-16, Trans 2-(4-(3-methoxyazetidin-1-yl)-1-(4-oxo-3-((4-(trifluoromethoxy)phenyl)amino)-4,5-dihydro-1H-pyrazolo[4,3-c]pyridin-1-yl)cyclohexyl)acetonitrile]	0.15	1.43
N#CC[C@]1(n2nc(Nc3ccc(OC(F)(F)F)cc3)c3c(=O)[nH]ccc32)CC[C@@H](Nc2ccccc2)CC1 [Example 18-17, Cis 2-(1-(4-oxo-3-((4-(trifluoromethoxy)phenyl)amino)-4,5-dihydro-1H-pyrazolo[4,3-c]pyridin-1-yl)-4-(phenylamino)cyclohexyl)acetonitrile]	120	1100
N#CC[C@]1(n2nc(Nc3ccc(OC(F)(F)F)cc3)c3c(=O)[nH]ccc32)CC[C@H](Nc2ccccc2)CC1 [Example 18-18, Trans 2-(1-(4-oxo-3-((4-(trifluoromethoxy)phenyl)amino)-4,5-dihydro-1H-pyrazolo[4,3-c]pyridin-1-yl)-4-(phenylamino)cyclohexyl)acetonitrile]	7.27	54.7
N#CC[C@]1(n2nc(Nc3ccc(OC(F)(F)F)cc3)c3c(=O)[nH]ccc32)CC[C@H](NC2CCCCC2)CC1 [Example 18-19, Trans 2-(4-(cyclohexylamino)-1-(4-oxo-3-((4-(trifluoromethoxy)phenyl)amino)-4,5-dihydro-1H-pyrazolo[4,3-c]pyridin-1-yl)cyclohexyl)acetonitrile]	0.37	36.6
N#CC[C@]1(n2nc(Nc3ccc(OC(F)(F)F)cc3)c3c(=O)[nH]ccc32)CC[C@@H](NC2CCCCC2)CC1 [Example 18-20, Cis 2-(4-(cyclohexylamino)-1-(4-oxo-3-((4-(trifluoromethoxy)phenyl)amino)-4,5-dihydro-1H-pyrazolo[4,3-c]pyridin-1-yl)cyclohexyl)acetonitrile]	52.2	> 1500
N#CC[C@]1(n2nc(Nc3ccc(Cl)c(F)c3)c3c(=O)[nH]ccc32)CC[C@H](NC2CCCCC2)CC1 [Example 18-21, Trans 2-(1-(3-((4-chloro-3-fluorophenyl)amino)-4-oxo-4,5-dihydro-1H-pyrazolo[4,3-c]pyridin-1-yl)-4-(cyclohexylamino)cyclohexyl)acetonitrile]	0.12	64.2
N#CC[C@]1(n2nc(Nc3ccc(Cl)c(F)c3)c3c(=O)[nH]ccc32)CC[C@@H](NC2CCCCC2)CC1 [Example 18-22, Cis 2-(1-(3-((4-chloro-3-fluorophenyl)amino)-4-oxo-4,5-dihydro-1H-pyrazolo[4,3-c]pyridin-1-yl)-4-(cyclohexylamino)cyclohexyl)acetonitrile]	20.5	> 1500

Source: US9957264B2 (Merck Sharp & Dohme Corp., priority 2013, dated 2018)
